A word on the Ki: it is the dissociation constant of the complex between target and ligand, obtained from inhibition or displacement. A high value points to a looser hold on the target.

Our source for the Ki values is patent publication US7947852B2, “Naphthalene compounds, a process for their preparation and pharmaceutical compositions containing them” (Les Laboratoires Servier, priority 2007, dated 2011).

For test [1], the target named is T1, MT2 receptor (Homo sapiens, UniProt P49286).
T1 sequence (P49286 1-362): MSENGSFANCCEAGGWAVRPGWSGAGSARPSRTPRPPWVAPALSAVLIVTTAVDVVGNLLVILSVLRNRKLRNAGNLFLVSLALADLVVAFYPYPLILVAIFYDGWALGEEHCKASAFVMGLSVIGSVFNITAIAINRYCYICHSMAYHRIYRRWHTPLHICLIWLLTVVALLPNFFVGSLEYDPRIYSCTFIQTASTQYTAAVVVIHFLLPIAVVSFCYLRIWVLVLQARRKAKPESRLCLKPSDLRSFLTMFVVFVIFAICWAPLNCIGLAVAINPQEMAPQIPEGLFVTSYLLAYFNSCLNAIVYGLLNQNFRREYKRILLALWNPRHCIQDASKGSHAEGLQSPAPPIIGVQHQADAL
Kind of test: Melatonin MT2 receptor binding study. Particulars: 2-[125I]-iodomelatonin radioligand, competitive binding. As to the method: (§1) The MT1 or MT2 receptor binding experiments are carried out using 2-[^125I]-iodomelatonin as reference radioligand. The radioactivity retained is determined using a liquid scintillation counter.
(§2) Competitive binding experiments are then carried out in triplicate using the various test compounds. A range of different concentrations is tested for each compound. The results enable the binding affinities of the compounds tested (Ki) to be determined.

For test [2], the target named is MT1 receptor (Homo sapiens, UniProt P48039). Kind of test: Melatonin MT1 receptor binding study. Particulars: 2-[125I]-iodomelatonin radioligand, competitive binding. As to the method: as §1, §2
MT1 receptor, sequence (P48039 whole entry): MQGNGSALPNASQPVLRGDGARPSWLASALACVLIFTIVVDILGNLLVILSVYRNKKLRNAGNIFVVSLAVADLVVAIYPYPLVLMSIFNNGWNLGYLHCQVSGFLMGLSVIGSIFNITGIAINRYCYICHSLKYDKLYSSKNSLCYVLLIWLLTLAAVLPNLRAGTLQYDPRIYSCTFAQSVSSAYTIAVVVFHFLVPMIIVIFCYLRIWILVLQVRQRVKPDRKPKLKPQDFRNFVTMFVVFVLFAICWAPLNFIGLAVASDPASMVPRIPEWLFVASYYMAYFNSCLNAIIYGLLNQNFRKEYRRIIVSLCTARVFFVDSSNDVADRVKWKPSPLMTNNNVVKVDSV

For the compound `COc1ccc2cccc(/C(CNC(C)=O)=N\O)c2c1` [Example 2, N-[(2E)-2-(Hydroxyimino)-2-(7-methoxy-1-naphthyl)ethyl]acetamide], the Ki in test [1] worked out at 0.8 nM; in test [2], 7 nM.
